# Molecular target: B. taurus (heart) complex I (Bos taurus, UniProt P03887+P17694+P42026)
# Experiment: biochemical
# Assay type: biochemical
# Details: B. taurus heart mitochondria; estimated from fitted dose-response curves; read-out: B. taurus Complex I IC50
# Procedure, shortened: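 Complex I activity followed as DCIP reduction (600 nm, 30 s reads, 15 min) with 80 μM NADH and 60 μM decylubiquinone in 25 mM KPi pH 7.5 containing 2 μM antimycin A and 2 mM KCN. Freeze-thawed mouse or bovine heart mitochondria at 0.2 mg/mL; initial-rate percent of solvent control, single-point 100 μM or dose-response.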
# Chain of B. taurus (heart) complex I (P03887 whole entry): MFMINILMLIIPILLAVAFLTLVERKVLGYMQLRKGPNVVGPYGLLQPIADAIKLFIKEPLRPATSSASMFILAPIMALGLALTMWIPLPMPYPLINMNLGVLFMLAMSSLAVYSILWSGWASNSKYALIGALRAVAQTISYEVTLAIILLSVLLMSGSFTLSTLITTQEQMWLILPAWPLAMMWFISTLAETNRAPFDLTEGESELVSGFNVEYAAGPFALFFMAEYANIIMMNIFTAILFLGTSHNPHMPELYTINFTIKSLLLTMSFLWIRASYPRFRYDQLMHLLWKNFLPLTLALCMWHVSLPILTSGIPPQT
# Chain of B. taurus (heart) complex I (P17694 34-463): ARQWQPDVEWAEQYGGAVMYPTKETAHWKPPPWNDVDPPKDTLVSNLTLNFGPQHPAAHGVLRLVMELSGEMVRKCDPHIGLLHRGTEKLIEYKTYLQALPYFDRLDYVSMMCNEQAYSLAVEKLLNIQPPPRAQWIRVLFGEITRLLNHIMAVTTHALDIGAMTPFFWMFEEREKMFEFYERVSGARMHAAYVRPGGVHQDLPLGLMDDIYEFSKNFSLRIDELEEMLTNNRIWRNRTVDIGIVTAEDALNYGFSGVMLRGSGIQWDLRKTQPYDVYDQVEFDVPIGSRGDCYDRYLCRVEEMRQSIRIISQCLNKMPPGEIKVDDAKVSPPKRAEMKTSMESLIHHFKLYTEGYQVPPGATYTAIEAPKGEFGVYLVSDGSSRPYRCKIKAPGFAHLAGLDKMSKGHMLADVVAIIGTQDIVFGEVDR
# Chain of B. taurus (heart) complex I (P42026 38-216): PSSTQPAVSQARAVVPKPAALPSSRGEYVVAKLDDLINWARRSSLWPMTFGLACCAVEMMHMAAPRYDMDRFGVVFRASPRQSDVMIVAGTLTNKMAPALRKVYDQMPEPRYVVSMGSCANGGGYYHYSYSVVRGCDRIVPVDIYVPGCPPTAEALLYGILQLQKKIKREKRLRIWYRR
row,SMILES,IC50 [µM]
1,FC(F)(F)c1cccc(OCCCCn2cnc3ccccc32)c1 [Compound 7925004],13

# Same assay, conditions: B. taurus heart mitochondria; read-out: B. taurus Complex I IC50
row,SMILES,IC50 [µM]
1,Nc1nc2ccccc2n1CCOc1ccc(Br)cc1 [Compound 5842535],12.7
2,CC(C)Oc1cccc(OCCn2cnc3ccccc32)c1 [Compound 7926496],2.19
3,Clc1ccc(OCCn2cnc3ccccc32)c(Cl)c1 [Compound 7221649],10.7
4,CC(C)Cc1ccc(C(C)c2nc3ccccc3n2C(C)C)cc1 (stereo not drawn) [STK951903],14.7

# Same assay, conditions: Dose 0.0001 µM; read-out: B. taurus mitochondrial complex I activity
row,SMILES,activity at 0.0001 µM [%]
1,Nc1nc2ccccc2n1CCOc1ccc(Br)cc1 [Compound 5842535],89.6
2,CC(C)Oc1cccc(OCCn2cnc3ccccc32)c1 [Compound 7926496],89.9
3,Clc1ccc(OCCn2cnc3ccccc32)c(Cl)c1 [Compound 7221649],92.5
4,FC(F)(F)c1cccc(OCCCCn2cnc3ccccc32)c1 [Compound 7925004],92.5

# Same assay, conditions: Dose 0.0005 µM; read-out: B. taurus mitochondrial complex I activity
row,SMILES,activity at 0.0005 µM [%]
1,Nc1nc2ccccc2n1CCOc1ccc(Br)cc1 [Compound 5842535],91.9
2,CC(C)Oc1cccc(OCCn2cnc3ccccc32)c1 [Compound 7926496],91.2
3,Clc1ccc(OCCn2cnc3ccccc32)c(Cl)c1 [Compound 7221649],88.5
4,FC(F)(F)c1cccc(OCCCCn2cnc3ccccc32)c1 [Compound 7925004],92.1

# Same assay, conditions: Dose 0.001 µM; read-out: B. taurus mitochondrial complex I activity
row,SMILES,activity at 0.001 µM [%]
1,Nc1nc2ccccc2n1CCOc1ccc(Br)cc1 [Compound 5842535],90.7
2,CC(C)Oc1cccc(OCCn2cnc3ccccc32)c1 [Compound 7926496],91.7
3,Clc1ccc(OCCn2cnc3ccccc32)c(Cl)c1 [Compound 7221649],89.7
4,FC(F)(F)c1cccc(OCCCCn2cnc3ccccc32)c1 [Compound 7925004],90.6

# Same assay, conditions: Dose 0.0025 µM; read-out: B. taurus mitochondrial complex I activity
row,SMILES,activity at 0.0025 µM [%]
1,Nc1nc2ccccc2n1CCOc1ccc(Br)cc1 [Compound 5842535],94.2
2,CC(C)Oc1cccc(OCCn2cnc3ccccc32)c1 [Compound 7926496],85.5
3,Clc1ccc(OCCn2cnc3ccccc32)c(Cl)c1 [Compound 7221649],97.8
4,FC(F)(F)c1cccc(OCCCCn2cnc3ccccc32)c1 [Compound 7925004],88.9

# Same assay, conditions: Dose 0.005 µM; read-out: B. taurus mitochondrial complex I activity
row,SMILES,activity at 0.005 µM [%]
1,Nc1nc2ccccc2n1CCOc1ccc(Br)cc1 [Compound 5842535],96.1
2,CC(C)Oc1cccc(OCCn2cnc3ccccc32)c1 [Compound 7926496],94.5
3,Clc1ccc(OCCn2cnc3ccccc32)c(Cl)c1 [Compound 7221649],98.8
4,FC(F)(F)c1cccc(OCCCCn2cnc3ccccc32)c1 [Compound 7925004],89.8

# Same assay, conditions: Dose 0.013 µM; read-out: B. taurus mitochondrial complex I activity
row,SMILES,activity at 0.013 µM [%]
1,Nc1nc2ccccc2n1CCOc1ccc(Br)cc1 [Compound 5842535],92.4
2,CC(C)Oc1cccc(OCCn2cnc3ccccc32)c1 [Compound 7926496],90.6
3,Clc1ccc(OCCn2cnc3ccccc32)c(Cl)c1 [Compound 7221649],94.3
4,FC(F)(F)c1cccc(OCCCCn2cnc3ccccc32)c1 [Compound 7925004],84.7

# Same assay, conditions: Dose 0.025 µM; read-out: B. taurus mitochondrial complex I activity
row,SMILES,activity at 0.025 µM [%]
1,Nc1nc2ccccc2n1CCOc1ccc(Br)cc1 [Compound 5842535],87.8
2,CC(C)Oc1cccc(OCCn2cnc3ccccc32)c1 [Compound 7926496],91.4
3,Clc1ccc(OCCn2cnc3ccccc32)c(Cl)c1 [Compound 7221649],92
4,FC(F)(F)c1cccc(OCCCCn2cnc3ccccc32)c1 [Compound 7925004],87.1

# Same assay, conditions: Dose 0.063 µM; read-out: B. taurus mitochondrial complex I activity
row,SMILES,activity at 0.063 µM [%]
1,Nc1nc2ccccc2n1CCOc1ccc(Br)cc1 [Compound 5842535],92.4
2,CC(C)Oc1cccc(OCCn2cnc3ccccc32)c1 [Compound 7926496],86
3,Clc1ccc(OCCn2cnc3ccccc32)c(Cl)c1 [Compound 7221649],90.2
4,FC(F)(F)c1cccc(OCCCCn2cnc3ccccc32)c1 [Compound 7925004],85.1

# Same assay, conditions: Dose 0.125 µM; read-out: B. taurus mitochondrial complex I activity
row,SMILES,activity at 0.125 µM [%]
1,Nc1nc2ccccc2n1CCOc1ccc(Br)cc1 [Compound 5842535],92
2,CC(C)Oc1cccc(OCCn2cnc3ccccc32)c1 [Compound 7926496],80.2
3,Clc1ccc(OCCn2cnc3ccccc32)c(Cl)c1 [Compound 7221649],86.5
4,FC(F)(F)c1cccc(OCCCCn2cnc3ccccc32)c1 [Compound 7925004],81.8

# Same assay, conditions: Dose 0.313 µM; read-out: B. taurus mitochondrial complex I activity
row,SMILES,activity at 0.313 µM [%]
1,Nc1nc2ccccc2n1CCOc1ccc(Br)cc1 [Compound 5842535],85.5
2,CC(C)Oc1cccc(OCCn2cnc3ccccc32)c1 [Compound 7926496],76.3
3,Clc1ccc(OCCn2cnc3ccccc32)c(Cl)c1 [Compound 7221649],88
4,FC(F)(F)c1cccc(OCCCCn2cnc3ccccc32)c1 [Compound 7925004],83.3

# Same assay, conditions: Dose 0.625 µM; read-out: B. taurus mitochondrial complex I activity
row,SMILES,activity at 0.625 µM [%]
1,Nc1nc2ccccc2n1CCOc1ccc(Br)cc1 [Compound 5842535],84.7
2,CC(C)Oc1cccc(OCCn2cnc3ccccc32)c1 [Compound 7926496],69.4
3,Clc1ccc(OCCn2cnc3ccccc32)c(Cl)c1 [Compound 7221649],83.9
4,FC(F)(F)c1cccc(OCCCCn2cnc3ccccc32)c1 [Compound 7925004],88.4

# Same assay, conditions: Dose 1.5 µM; read-out: B. taurus mitochondrial complex I activity
row,SMILES,activity at 1.5 µM [%]
1,Nc1nc2ccccc2n1CCOc1ccc(Br)cc1 [Compound 5842535],82.8
2,CC(C)Oc1cccc(OCCn2cnc3ccccc32)c1 [Compound 7926496],53.2
3,Clc1ccc(OCCn2cnc3ccccc32)c(Cl)c1 [Compound 7221649],85.6
4,FC(F)(F)c1cccc(OCCCCn2cnc3ccccc32)c1 [Compound 7925004],81.4

# Same assay, conditions: Dose 3 µM; read-out: B. taurus mitochondrial complex I activity
row,SMILES,activity at 3 µM [%]
1,Nc1nc2ccccc2n1CCOc1ccc(Br)cc1 [Compound 5842535],67.2
2,CC(C)Oc1cccc(OCCn2cnc3ccccc32)c1 [Compound 7926496],36
3,Clc1ccc(OCCn2cnc3ccccc32)c(Cl)c1 [Compound 7221649],77.8
4,FC(F)(F)c1cccc(OCCCCn2cnc3ccccc32)c1 [Compound 7925004],76.3

# Same assay, conditions: Dose 15 µM; read-out: B. taurus mitochondrial complex I activity
row,SMILES,activity at 15 µM [%]
1,Nc1nc2ccccc2n1CCOc1ccc(Br)cc1 [Compound 5842535],33.6
2,CC(C)Oc1cccc(OCCn2cnc3ccccc32)c1 [Compound 7926496],9.56
3,Clc1ccc(OCCn2cnc3ccccc32)c(Cl)c1 [Compound 7221649],33
4,FC(F)(F)c1cccc(OCCCCn2cnc3ccccc32)c1 [Compound 7925004],35.9

# Same assay, conditions: Dose 37.5 µM; read-out: B. taurus mitochondrial complex I activity
row,SMILES,activity at 37.5 µM [%]
1,Nc1nc2ccccc2n1CCOc1ccc(Br)cc1 [Compound 5842535],3.2
2,CC(C)Oc1cccc(OCCn2cnc3ccccc32)c1 [Compound 7926496],1.81
3,Clc1ccc(OCCn2cnc3ccccc32)c(Cl)c1 [Compound 7221649],7.81
4,FC(F)(F)c1cccc(OCCCCn2cnc3ccccc32)c1 [Compound 7925004],9.66

# Same assay, conditions: Dose 75 µM; read-out: B. taurus mitochondrial complex I activity
row,SMILES,activity at 75 µM [%]
1,Nc1nc2ccccc2n1CCOc1ccc(Br)cc1 [Compound 5842535],1.7
2,CC(C)Oc1cccc(OCCn2cnc3ccccc32)c1 [Compound 7926496],1.89
3,Clc1ccc(OCCn2cnc3ccccc32)c(Cl)c1 [Compound 7221649],3.92
4,FC(F)(F)c1cccc(OCCCCn2cnc3ccccc32)c1 [Compound 7925004],1.95

# Same assay, conditions: log10 of IC50 in µM; B. taurus mitochondria
row,SMILES,Log IC50 B. taurus complex I [µM]
1,Nc1nc2ccccc2n1CCOc1ccc(Br)cc1 [Compound 5842535],1.10
2,CC(C)Oc1cccc(OCCn2cnc3ccccc32)c1 [Compound 7926496],0.34
3,Clc1ccc(OCCn2cnc3ccccc32)c(Cl)c1 [Compound 7221649],1.03
4,CC(C)Cc1ccc(C(C)c2nc3ccccc3n2C(C)C)cc1 (stereo not drawn) [STK951903],1.17
5,FC(F)(F)c1cccc(OCCCCn2cnc3ccccc32)c1 [Compound 7925004],1.11

# Test system: L1 wild-type C. elegans
# Experiment: microbe, parasite or virus in culture
# Details: Caenorhabditis elegans, read-out: C. elegans KCN Survival Assay LC50, estimated from fitted dose-response curves; mean of at least two biological replicates
row,SMILES,LC50 [µM]
1,Nc1nc2ccccc2n1CCOc1ccc(Br)cc1 [Compound 5842535],26.7
2,CC(C)Oc1cccc(OCCn2cnc3ccccc32)c1 [Compound 7926496],23
3,Clc1ccc(OCCn2cnc3ccccc32)c(Cl)c1 [Compound 7221649],13
4,CC(C)Cc1ccc(C(C)c2nc3ccccc3n2C(C)C)cc1 (stereo not drawn) [STK951903],25.1
5,FC(F)(F)c1cccc(OCCCCn2cnc3ccccc32)c1 [Compound 7925004],13.9

# Test system: ben-1 mutant (ECA882) C. elegans
# Experiment: microbe, parasite or virus in culture
# Details: Caenorhabditis elegans, read-out: C. elegans (ben-1) Development & Viability Assay LC50
# Procedure, shortened: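 L1 larvae (~2 worms/μL in M9) in liquid NGM with 2-fold concentrated E. coli HB101, compound at 1% DMSO, 6 days at 20 °C shaking 165 rpm. Well images scored as summed worm-associated pixels, normalized to DMSO controls; relative viability averaged over at least three biological replicates.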
row,SMILES,LC50 [µM]
1,Nc1nc2ccccc2n1CCOc1ccc(Br)cc1 [Compound 5842535],41.1
2,CC(C)Oc1cccc(OCCn2cnc3ccccc32)c1 [Compound 7926496],388
3,Clc1ccc(OCCn2cnc3ccccc32)c(Cl)c1 [Compound 7221649],37.2
4,CC(C)Cc1ccc(C(C)c2nc3ccccc3n2C(C)C)cc1 (stereo not drawn) [STK951903],731
5,FC(F)(F)c1cccc(OCCCCn2cnc3ccccc32)c1 [Compound 7925004],47.3

# Same assay, conditions: Caenorhabditis elegans, read-out: C. elegans ben-1(e1880) development/viability
SMILES,viability at 1 µM [%],viability at 2 µM [%],viability at 3.9 µM [%],viability at 15.6 µM [%],viability at 31.3 µM [%],viability at 62.5 µM [%],viability at 125 µM [%],viability at 250 µM [%],viability at 500 µM [%],viability at 1000 µM [%]
Nc1nc2ccccc2n1CCOc1ccc(Br)cc1 [Compound 5842535],99.9,100,97.9,100,85.9,5.7,6,,,
CC(C)Oc1cccc(OCCn2cnc3ccccc32)c1 [Compound 7926496],86.1,87.5,87.4,90.6,95.8,91.5,81,86.3,13.9,3.6
Clc1ccc(OCCn2cnc3ccccc32)c(Cl)c1 [Compound 7221649],86.6,85.6,87.8,91.2,64.6,3.9,37.3,,,
FC(F)(F)c1cccc(OCCCCn2cnc3ccccc32)c1 [Compound 7925004],93.7,95.4,96.9,76.5,75.3,28,3.4,2.3,2.6,1.1

# Same assay, conditions: Caenorhabditis elegans, read-out: C. elegans ben-1 log10 LC50 (converted)
row,SMILES,LC50 [µM]
1,Nc1nc2ccccc2n1CCOc1ccc(Br)cc1 [Compound 5842535],41
2,CC(C)Oc1cccc(OCCn2cnc3ccccc32)c1 [Compound 7926496],388
3,Clc1ccc(OCCn2cnc3ccccc32)c(Cl)c1 [Compound 7221649],37.2
4,CC(C)Cc1ccc(C(C)c2nc3ccccc3n2C(C)C)cc1 (stereo not drawn) [STK951903],731
5,FC(F)(F)c1cccc(OCCCCn2cnc3ccccc32)c1 [Compound 7925004],47.3

# From article PMC11079024, “Identification of a family of species-selective complex I inhibitors as potential anthelmintics” (Nature Communications, 2024)
